Laboratory results reported in patent US12606544B2, “JAK1 selective kinase inhibitor” (DIZAL (JIANGSU) PHARMACEUTICAL CO., LTD., priority 2019, dated 2026).

Legend:
[1] = Metabolic stability in rat hepatocytes; assay type: in vitro ADME; settings: 1 μM compound, male rat hepatocytes
Experimental: (§1) Rat hepatocytes in male gender and human liver microsome were obtained from commercial vendors (e.g., BioreclamationIVT) and stored at −150° C. prior to use.
For metabolic stability assay with rat heptatocytes, vials of cryopreserved hepatocytes or microsome were removed from storage, ensured that vials remain at cryogenic temperatures. 1 μM of each test compound (in Acetonitrile; 0.01% DMSO) was incubated with 250 μL of hepatocyte cells (1×10^6 cells/ml) in a 96 deep well plate. […] 40 μL of supernatant was diluted to 200 μL with pure water and analyzed using LC-MS/MS.
In vitro hepatocyte clearance was estimated based on determination of elimination half-life (T1/2) of compounds disappearance from their initial concentrations. Peak area ratios of each compound (test or control) to IS was calculated. Ln (% Control) versus Incubation Time (min) curve was plotted, and the slope of a linear fitting line was calculated. Drug elimination rate constant k (min−1), T1/2 (min), and in vitro intrinsic clearance CLint (μL/min/E6) was calculated according to the following equations: k=−slope T1/2=0.693/k CLint=k/Chep Where Chep (cells×μL^−1) is the cell concentration in the incubation system.

[2] = target: T1, JAK2 (Homo sapiens, UniProt O60674); assay: Lance Ultra Kinase Assay, recombinant JAK2; assay type: biochemical; settings: 5 mM ATP
T1 construct: purchased Carna Biosciences
Method in brief: (§2)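 Each recombinant kinase preincubated with or without compound 15 min at room temperature, then reaction started with 5 mM ATP and substrate peptide for 60 min. Stopped with EDTA-containing detection mix; TR-FRET read at ex 320 nm, 665/615 nm emission ratio taken as kinase activity.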

[3] = target: T2, JAK1 (Homo sapiens, UniProt P23458); assay: Lance Ultra Kinase Assay, recombinant JAK1; assay type: biochemical; settings: 5 mM ATP
T2 construct: purchased Carna Biosciences
Method in brief: as §2

[4] = target: T3, TYK2 (Homo sapiens, UniProt P29597); assay: Lance Ultra Kinase Assay, recombinant TYK2; assay type: biochemical; settings: 5 mM ATP
T3 construct: purchased Carna Biosciences
Method in brief: as §2

[5] = target: T4, JAK3 (Homo sapiens, UniProt P52333); assay: Lance Ultra Kinase Assay, recombinant JAK3; assay type: biochemical; settings: 5 mM ATP
T4 construct: purchased Carna Biosciences
T4 sequence (P52333 1-1124): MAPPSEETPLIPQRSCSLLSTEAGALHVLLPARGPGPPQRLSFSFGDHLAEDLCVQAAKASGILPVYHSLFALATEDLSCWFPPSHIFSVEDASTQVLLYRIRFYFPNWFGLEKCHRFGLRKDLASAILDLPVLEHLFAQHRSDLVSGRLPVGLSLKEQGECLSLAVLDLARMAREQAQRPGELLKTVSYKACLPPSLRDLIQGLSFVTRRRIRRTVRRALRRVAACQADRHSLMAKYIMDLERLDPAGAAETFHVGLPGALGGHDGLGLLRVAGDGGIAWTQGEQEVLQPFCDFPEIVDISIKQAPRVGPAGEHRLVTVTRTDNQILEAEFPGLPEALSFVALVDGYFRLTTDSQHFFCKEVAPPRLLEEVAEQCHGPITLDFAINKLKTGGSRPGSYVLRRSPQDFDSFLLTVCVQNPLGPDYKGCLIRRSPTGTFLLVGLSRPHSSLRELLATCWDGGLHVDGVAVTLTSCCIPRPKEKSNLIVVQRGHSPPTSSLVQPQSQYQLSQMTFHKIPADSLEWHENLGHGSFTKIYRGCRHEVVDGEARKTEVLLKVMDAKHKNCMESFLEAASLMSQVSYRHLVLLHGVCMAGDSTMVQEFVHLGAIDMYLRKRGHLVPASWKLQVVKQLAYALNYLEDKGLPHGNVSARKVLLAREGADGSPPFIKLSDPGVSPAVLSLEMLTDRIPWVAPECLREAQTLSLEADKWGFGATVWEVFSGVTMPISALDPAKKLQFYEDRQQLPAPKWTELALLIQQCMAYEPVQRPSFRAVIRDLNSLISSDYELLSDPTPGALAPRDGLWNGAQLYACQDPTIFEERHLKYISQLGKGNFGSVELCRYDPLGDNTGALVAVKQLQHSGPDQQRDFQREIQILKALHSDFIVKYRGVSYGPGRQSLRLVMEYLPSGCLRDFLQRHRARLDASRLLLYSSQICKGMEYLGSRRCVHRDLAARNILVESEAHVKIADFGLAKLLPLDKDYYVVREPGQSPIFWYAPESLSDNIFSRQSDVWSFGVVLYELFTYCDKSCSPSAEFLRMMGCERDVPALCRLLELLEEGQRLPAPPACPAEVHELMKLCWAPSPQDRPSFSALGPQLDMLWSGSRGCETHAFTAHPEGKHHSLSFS
Method in brief: as §2

[6] = Pharmacokinetics in plasma and lung in mouse, intratracheal instillation; assay type: in vivo; settings: male CD1 mice; for half-life / Kp at 5 min / Kp at 1 h: mouse; for half-life: lung, intratracheal instillation, read-out: Lung T1/2 (converted); for Kp at 5 min / Kp at 1 h: lung/plasma, other: intratracheal instillation; for Kp at 5 min: read-out: Conc. Ratio (Lung/Plasma) 5 min; for Kp at 1 h: read-out: Conc. Ratio (Lung/Plasma) 1 hr
Experimental: Lung PK of the compounds were tested via Intratracheal (IT) instillation administration in male CD1 Mice. Plasma and lung levels of test compounds and ratios thereof were determined in the following manner. Test compounds were dosed cassettely as the formulation of 0.4 mg/mL suspension of 0.5% HPMC, 0.1% Tween 80 in saline. The animal was anesthetized using 5% of isoflurane for 5 min, open its mouth and take out the tongue, the light was focused on the neck of the mouse and localize the trachea, and the syringe was inserted into the trachea while the trachea is in the open state, and the test compounds were inject into the trachea. At various time points (typically 5 min, 1, 4, 24 hours) post dosing, approximately 0.250 mL blood samples were removed via cardiac puncture and intact lungs were excised from the mice. Each blood sample was transferred into plastic micro centrifuge tubes containing K2EDTA. Blood samples were then centrifuged (Eppendorf centrifuge, 5804R) for 4 minutes at approximately 12,000 rpm at 4° C. to collect plasma. The mice will be fully exsanguinated prior to tissue collection. Lung samples will be collected at adopted time point and the whole lung were weighted and homogenized. Concentrations of test compounds in the plasma and lung samples were analyzed using a LC-MS/MS method. WinNonlin (Phoenix™) or other similar software will be used for pharmacokinetic calculations.

[7] = test system: phosphorylation of STAT6; assay: Cellular p-STAT6 assay, IL-13 stimulated THP-1 cells, flow cytometry; assay type: cell-based; settings: Homo sapiens, THP-1, THP-1 cells, IL-13 10 ng/ml; read-out: pSTAT6 IC50
Method in brief: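 THP-1 cells (2×10^5/well, RPMI1640 + 10% FBS) preincubated 60 min at room temperature with compound (1 μM to 0.3 nM), then stimulated 30 min with IL-13 at 10 ng/ml. Fixed, methanol-permeabilized cells stained with PE anti-pSTAT6 and read by flow cytometry; IC50 from dose-response curves.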

[8] = Metabolic stability in human liver microsome; assay type: in vitro ADME; settings: human, pooled human liver microsomes, pH 7.4, 1 μM compound, 1 mg/mL microsomes, NADPH
Experimental: as §1
For metabolic stability assay with human liver microsome, 1 μM of each test compound was incubated with 1 mg/mL of microsomes (Pooled HLM with 20 mg/ml protein cone) at 37° C. in 250 μL of buffer (100 mM phosphate buffer, pH-7.4) containing 1 mM NADPH solution. […] was quenched with 5 volumes chilled acetonitrile at different time points 0, 0.5, 5, 10, 15, 20 and 30 min in a fresh 96 well plate. The quench plate was centrifuged at 4000 rpm for 15 min. 40 μL of supernatant was diluted to 200 μL with pure water and analyzed using LC-MS/MS. […]

T1 sequence (O60674 whole entry): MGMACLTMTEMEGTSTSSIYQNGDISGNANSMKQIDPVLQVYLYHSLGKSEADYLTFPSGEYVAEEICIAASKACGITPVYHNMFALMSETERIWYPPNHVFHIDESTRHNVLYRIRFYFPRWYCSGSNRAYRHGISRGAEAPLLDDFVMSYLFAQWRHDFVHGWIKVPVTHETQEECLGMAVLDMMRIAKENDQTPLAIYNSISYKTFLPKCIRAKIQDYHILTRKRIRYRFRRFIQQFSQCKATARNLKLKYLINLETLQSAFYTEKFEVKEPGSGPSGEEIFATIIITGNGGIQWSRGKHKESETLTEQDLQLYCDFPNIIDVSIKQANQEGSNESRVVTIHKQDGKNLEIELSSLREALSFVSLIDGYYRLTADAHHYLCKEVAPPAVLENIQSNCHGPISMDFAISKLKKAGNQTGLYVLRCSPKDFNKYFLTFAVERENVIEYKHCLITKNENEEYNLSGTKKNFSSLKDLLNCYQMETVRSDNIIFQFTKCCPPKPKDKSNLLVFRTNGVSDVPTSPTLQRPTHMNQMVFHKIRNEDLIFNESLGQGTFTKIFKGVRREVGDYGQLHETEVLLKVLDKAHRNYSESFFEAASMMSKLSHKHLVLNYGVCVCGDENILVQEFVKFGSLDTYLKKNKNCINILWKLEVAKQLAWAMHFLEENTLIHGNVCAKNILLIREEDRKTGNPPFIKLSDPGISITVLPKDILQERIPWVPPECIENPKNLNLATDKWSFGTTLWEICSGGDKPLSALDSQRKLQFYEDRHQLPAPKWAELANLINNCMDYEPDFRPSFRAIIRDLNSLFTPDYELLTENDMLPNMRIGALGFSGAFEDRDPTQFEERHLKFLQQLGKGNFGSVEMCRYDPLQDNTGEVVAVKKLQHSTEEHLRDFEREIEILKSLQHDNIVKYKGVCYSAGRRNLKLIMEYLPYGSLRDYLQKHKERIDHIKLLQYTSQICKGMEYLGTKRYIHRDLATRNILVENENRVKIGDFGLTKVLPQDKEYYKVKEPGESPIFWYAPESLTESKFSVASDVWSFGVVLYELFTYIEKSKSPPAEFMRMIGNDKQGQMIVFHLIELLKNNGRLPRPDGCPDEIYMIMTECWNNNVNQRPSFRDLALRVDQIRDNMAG
T2 sequence (P23458 whole entry): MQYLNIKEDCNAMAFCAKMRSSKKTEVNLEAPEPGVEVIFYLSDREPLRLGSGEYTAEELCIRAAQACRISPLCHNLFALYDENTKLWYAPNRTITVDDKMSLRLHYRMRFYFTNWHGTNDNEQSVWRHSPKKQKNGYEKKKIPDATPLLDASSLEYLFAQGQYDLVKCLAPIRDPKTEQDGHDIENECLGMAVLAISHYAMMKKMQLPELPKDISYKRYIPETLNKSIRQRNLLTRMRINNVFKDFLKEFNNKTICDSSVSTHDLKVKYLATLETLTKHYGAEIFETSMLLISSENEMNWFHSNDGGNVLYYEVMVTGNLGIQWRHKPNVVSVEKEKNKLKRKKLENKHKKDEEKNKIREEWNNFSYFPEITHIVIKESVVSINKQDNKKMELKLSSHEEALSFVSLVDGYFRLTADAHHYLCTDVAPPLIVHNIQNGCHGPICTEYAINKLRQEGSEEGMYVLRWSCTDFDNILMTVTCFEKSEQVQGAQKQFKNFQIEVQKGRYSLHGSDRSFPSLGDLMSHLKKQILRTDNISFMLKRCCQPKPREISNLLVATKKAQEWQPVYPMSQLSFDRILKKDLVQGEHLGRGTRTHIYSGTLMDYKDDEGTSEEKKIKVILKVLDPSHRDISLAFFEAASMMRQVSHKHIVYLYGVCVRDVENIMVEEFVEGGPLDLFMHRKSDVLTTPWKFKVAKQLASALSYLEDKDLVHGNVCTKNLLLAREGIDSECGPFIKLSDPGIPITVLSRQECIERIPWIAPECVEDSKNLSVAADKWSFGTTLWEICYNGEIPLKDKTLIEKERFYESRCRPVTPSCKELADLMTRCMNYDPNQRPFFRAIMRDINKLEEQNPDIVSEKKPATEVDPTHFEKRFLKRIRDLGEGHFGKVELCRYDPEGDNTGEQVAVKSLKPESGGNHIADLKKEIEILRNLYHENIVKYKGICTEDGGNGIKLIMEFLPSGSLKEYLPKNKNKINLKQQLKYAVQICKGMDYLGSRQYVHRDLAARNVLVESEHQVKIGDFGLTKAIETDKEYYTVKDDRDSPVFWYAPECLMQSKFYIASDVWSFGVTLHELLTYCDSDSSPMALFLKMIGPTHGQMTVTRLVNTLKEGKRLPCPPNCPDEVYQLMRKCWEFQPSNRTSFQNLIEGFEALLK
T3 sequence (P29597 whole entry): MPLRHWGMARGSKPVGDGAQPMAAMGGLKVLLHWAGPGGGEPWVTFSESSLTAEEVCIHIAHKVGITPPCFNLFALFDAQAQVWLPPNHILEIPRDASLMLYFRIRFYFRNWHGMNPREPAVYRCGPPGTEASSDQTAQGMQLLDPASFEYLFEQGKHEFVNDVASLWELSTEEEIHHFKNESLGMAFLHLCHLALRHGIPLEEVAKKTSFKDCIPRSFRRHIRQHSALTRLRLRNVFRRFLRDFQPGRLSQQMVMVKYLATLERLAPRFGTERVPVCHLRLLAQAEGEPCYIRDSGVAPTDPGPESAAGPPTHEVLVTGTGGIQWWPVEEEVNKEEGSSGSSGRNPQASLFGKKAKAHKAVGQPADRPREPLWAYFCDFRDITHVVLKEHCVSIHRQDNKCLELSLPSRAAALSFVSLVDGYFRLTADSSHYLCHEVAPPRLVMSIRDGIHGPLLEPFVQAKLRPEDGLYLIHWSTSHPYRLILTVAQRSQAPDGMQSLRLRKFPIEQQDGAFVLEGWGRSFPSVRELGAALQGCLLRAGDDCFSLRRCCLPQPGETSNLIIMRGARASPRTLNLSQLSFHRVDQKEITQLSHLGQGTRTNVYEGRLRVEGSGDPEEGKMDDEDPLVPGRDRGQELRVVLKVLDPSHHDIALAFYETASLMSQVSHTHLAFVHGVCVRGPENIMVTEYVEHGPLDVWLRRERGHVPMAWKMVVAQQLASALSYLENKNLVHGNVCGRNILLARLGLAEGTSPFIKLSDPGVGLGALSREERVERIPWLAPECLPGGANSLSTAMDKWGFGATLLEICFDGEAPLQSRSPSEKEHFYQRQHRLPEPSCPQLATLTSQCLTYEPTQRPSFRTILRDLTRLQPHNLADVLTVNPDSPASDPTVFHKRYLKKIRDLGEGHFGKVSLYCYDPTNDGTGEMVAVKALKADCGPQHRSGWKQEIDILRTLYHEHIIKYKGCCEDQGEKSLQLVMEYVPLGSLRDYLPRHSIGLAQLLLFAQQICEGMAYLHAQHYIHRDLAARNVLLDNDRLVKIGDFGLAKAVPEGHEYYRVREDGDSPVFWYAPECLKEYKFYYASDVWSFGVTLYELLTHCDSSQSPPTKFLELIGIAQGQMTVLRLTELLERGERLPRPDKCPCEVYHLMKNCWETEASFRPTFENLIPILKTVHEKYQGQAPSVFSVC

With `COC[C@H](C(=O)Nc1cccc2c(-c3nc(Nc4ccnc(CO)c4)ncc3F)c[nH]c12)N1CCN(C)CC1` [Example 2, (R)-N-(3-(5-fluoro-2-((2-(hydroxymethyl)pyridin-4-yl)amino)pyrimidin-4-yl)-1H-indol-7-yl)-3-methoxy-2-(4-methylpiperazin-1-yl)propanamide] the “Rat Hepatocyte CLint” value [1] was 9.5 μL/min/10^6 cells, the IC50 [2] was 202 nM and the IC50 [3] was 0.25 nM. The IC50 [4] was 1090 nM, the IC50 [5] was over 10000 nM and the “% Dose in Lung 5 min” value [6] was 18.1%. For the same molecule, the “% Dose in Lung 1 hr” value [6] was 13.4%, the half-life [6] was 29.9 h and the Kp at 5 min [6] was 399. It also gave a Kp at 1 h [6] of 3260, an IC50 [7] of 4.3 nM and a microsomal CLint at 1 μM [8] of 10.6 µL/min/mg.
For `COC[C@H](C(=O)Nc1cccc2c(-c3nc(Nc4ccc(NC(=O)CO)nc4)ncc3F)c[nH]c12)N1CCN(C)CC1` [Example 8, (R)-N-(3-(5-fluoro-2-((6-(2-hydroxyacetamido)pyridin-3-yl)amino)pyrimidin-4-yl)-1H-indol-7-yl)-3-methoxy-2-(4-methylpiperazin-1-yl)propanamide], the “Rat Hepatocyte CLint” value [1] was 38.4 μL/min/10^6 cells, the IC50 [2] was 183 nM and the IC50 [3] was 0.16 nM. The IC50 [4] was 850 nM, the IC50 [5] was over 10000 nM and the “% Dose in Lung 5 min” value [6] was 62.7%. The “% Dose in Lung 1 hr” value [6] was 13.4%, the half-life [6] was 3.5 h and the Kp at 5 min [6] was 296. For the same molecule, the Kp at 1 h [6] was 1590, the IC50 [7] was 6.2 nM and the microsomal CLint at 1 μM [8] was 7.2 µL/min/mg.
For `COC[C@H](C(=O)Nc1cccc2c(-c3nc(Nc4ccc(-c5cnco5)nc4)ncc3F)c[nH]c12)N1CCN(C)CC1` [Example 40, (R)-N-(3-(5-fluoro-2-((6-(oxazol-5-yl)pyridin-3-yl)amino)pyrimidin-4-yl)-1H-indol-7-yl)-3-methoxy-2-(4-methylpiperazin-1-yl)propanamide], the “Rat Hepatocyte CLint” value [1] was 36.4 μL/min/10^6 cells, the IC50 [2] was 219 nM and the IC50 [3] was 0.21 nM. The IC50 [4] was 2510 nM, the IC50 [5] was over 10000 nM and the “% Dose in Lung 5 min” value [6] was 58.6%. The “% Dose in Lung 1 hr” value [6] was 23.0%, the half-life [6] was 4.6 h and the Kp at 5 min [6] was 824. The Kp at 1 h [6] was 1440, the IC50 [7] was 12.1 nM and the microsomal CLint at 1 μM [8] was 50.4 µL/min/mg.
For `CCC(=O)Nc1ccc(Nc2ncc(F)c(-c3c[nH]c4c(NC(=O)[C@@H](COC)N5CCN(C)CC5)cccc34)n2)cn1` [Example 5, (R)-N-(3-(5-fluoro-2-((6-propionamidopyridin-3-yl)amino)pyrimidin-4-yl)-1H-indol-7-yl)-3-methoxy-2-(4-methylpiperazin-1-yl)propanamide], the “Rat Hepatocyte CLint” value [1] was 11.0 μL/min/10^6 cells, the IC50 [2] was 268 nM and the IC50 [3] was 0.19 nM. The IC50 [4] was 764 nM, the IC50 [5] was over 10000 nM and the “% Dose in Lung 5 min” value [6] was 101.6%. The “% Dose in Lung 1 hr” value [6] was 54.0%, the half-life [6] was 6.1 h and the Kp at 5 min [6] was 2100. The Kp at 1 h [6] was 2940, the IC50 [7] was 5.1 nM and the microsomal CLint at 1 μM [8] was 73.9 µL/min/mg.
In the case of `COC[C@H](C(=O)Nc1cccc2c(-c3nc(Nc4ccc5sc(CO)nc5c4)ncc3F)c[nH]c12)N1CCN(C)CC1` [Example 38, (R)-N-(3-(5-fluoro-2-((2-(hydroxymethyl)benzo[d]thiazol-5-yl)amino)pyrimidin-4-yl)-1H-indol-7-yl)-3-methoxy-2-(4-methylpiperazin-1-yl)propanainide], the “Rat Hepatocyte CLint” value [1] is reported as 117.1 μL/min/10^6 cells, the IC50 [2] is reported as 65 nM and the IC50 [3] is reported as 0.13 nM. The IC50 [4] was 726 nM, the IC50 [5] was over 10000 nM and the “% Dose in Lung 5 min” value [6] was 79.9%. The “% Dose in Lung 1 hr” value [6] was 19.4%, the half-life [6] was 3.9 h and the Kp at 5 min [6] was 965. It also gave a Kp at 1 h [6] of 1780, an IC50 [7] of 11.8 nM and a microsomal CLint at 1 μM [8] of 10.9 µL/min/mg.
In the case of `COC[C@H](C(=O)Nc1cccc2c(-c3nc(Nc4ccnc(C(=O)OC)c4)ncc3F)c[nH]c12)N1CCN(C)CC1` [Example 4, Methyl-(R)-4-((5-fluoro-4-(7-(3-methoxy-2-(4-methylpiperazin-1-yl)propanamido)-1H-indol-3-yl)pyrimidin-2-yl)amino)picolinate], the “Rat Hepatocyte CLint” value [1] is reported as over 300 μL/min/10^6 cells, the IC50 [2] is reported as 81 nM and the IC50 [3] is reported as 0.26 nM. The IC50 [4] was 1830 nM, the IC50 [5] was over 10000 nM and the IC50 [7] was 5.1 nM. For the same molecule, the microsomal CLint at 1 μM [8] was 14.4 µL/min/mg.
